pEC50, pIC50: −log10 of the molar value.
Tests used:
PNI rats = assay: Paw withdrawal threshold; type: in vivo, rat
[1] = Pharmacokinetic analysis in rats; type: in vivo; conditions: rat
hERG channel = hERG channel (Homo sapiens, UniProt Q12809); assay: hERG inhibition of tail current, automated patch-clamp; type: cell-based
rats = assay: Accelerating rotorod assay; type: in vivo, rat; conditions: equipotent oral doses, 2 h post-dose
[2] = tested on: superficial dorsal horn field responses; type: in vivo, rat; conditions: local spinal 100 μM
[3] = target: recombinant α1β2γ2 GABAA receptors (Homo sapiens, UniProt P14867+P18507+P47870); assay: GABAA receptor automated whole cell patch-clamp in CHO cells; type: cell-based; conditions: 50 μM CLP257, CHO cells
recombinant α1β2γ2 GABAA receptors, sequence (P14867 28-456): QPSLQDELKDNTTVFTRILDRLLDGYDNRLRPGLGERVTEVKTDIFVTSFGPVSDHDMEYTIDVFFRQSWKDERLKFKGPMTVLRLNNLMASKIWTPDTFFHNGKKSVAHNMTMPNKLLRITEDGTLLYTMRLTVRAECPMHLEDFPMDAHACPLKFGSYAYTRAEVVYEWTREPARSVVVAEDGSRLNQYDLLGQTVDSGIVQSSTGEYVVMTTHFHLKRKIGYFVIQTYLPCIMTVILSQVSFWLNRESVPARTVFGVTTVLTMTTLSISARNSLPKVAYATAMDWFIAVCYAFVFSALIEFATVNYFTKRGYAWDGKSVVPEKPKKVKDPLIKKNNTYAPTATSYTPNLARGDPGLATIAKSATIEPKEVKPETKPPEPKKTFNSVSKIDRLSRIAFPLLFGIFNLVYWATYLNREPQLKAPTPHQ
recombinant α1β2γ2 GABAA receptors, sequence (P47870 25-512 limits assumed): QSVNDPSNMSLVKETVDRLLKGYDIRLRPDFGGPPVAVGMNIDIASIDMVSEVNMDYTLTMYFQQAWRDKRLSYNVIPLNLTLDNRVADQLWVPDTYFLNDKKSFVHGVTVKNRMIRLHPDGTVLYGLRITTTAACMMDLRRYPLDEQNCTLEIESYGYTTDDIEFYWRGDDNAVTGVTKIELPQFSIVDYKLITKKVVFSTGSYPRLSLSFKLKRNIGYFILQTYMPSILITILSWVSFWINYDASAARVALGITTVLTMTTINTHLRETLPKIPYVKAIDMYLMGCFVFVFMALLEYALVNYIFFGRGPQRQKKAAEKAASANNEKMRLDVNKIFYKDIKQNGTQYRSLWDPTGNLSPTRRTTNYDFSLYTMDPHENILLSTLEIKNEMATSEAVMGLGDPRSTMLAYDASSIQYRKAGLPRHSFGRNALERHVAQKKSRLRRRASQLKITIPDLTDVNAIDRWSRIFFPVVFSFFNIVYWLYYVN
recombinant α1β2γ2 GABAA receptors, sequence (P18507 40-475): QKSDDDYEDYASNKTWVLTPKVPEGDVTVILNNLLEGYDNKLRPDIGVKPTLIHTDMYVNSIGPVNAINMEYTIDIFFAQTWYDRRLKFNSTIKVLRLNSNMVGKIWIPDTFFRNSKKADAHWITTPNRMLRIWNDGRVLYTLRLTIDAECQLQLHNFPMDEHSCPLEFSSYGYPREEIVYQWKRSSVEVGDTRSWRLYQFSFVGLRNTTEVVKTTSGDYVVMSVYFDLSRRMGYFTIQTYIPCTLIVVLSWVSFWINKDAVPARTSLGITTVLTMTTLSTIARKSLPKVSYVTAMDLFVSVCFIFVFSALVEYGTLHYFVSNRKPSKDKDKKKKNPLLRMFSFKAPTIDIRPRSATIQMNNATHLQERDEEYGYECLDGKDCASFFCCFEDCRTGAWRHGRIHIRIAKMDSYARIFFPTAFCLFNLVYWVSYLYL

NG108-cl cells = assay: Clomeleon assay of [Cl−]i in NG108-cl cells; type: cell-based
KCC2 [4] = target: T1, KCC2 (Homo sapiens, UniProt Q9H2X9); assay: Rb+ flux assay in X. laevis oocytes expressing KCC2; type: cell-based; conditions: 200 nM pre-incubation, 45 min Rb+ influx, vs vehicle
T1 sequence (Q9H2X9 1-1139): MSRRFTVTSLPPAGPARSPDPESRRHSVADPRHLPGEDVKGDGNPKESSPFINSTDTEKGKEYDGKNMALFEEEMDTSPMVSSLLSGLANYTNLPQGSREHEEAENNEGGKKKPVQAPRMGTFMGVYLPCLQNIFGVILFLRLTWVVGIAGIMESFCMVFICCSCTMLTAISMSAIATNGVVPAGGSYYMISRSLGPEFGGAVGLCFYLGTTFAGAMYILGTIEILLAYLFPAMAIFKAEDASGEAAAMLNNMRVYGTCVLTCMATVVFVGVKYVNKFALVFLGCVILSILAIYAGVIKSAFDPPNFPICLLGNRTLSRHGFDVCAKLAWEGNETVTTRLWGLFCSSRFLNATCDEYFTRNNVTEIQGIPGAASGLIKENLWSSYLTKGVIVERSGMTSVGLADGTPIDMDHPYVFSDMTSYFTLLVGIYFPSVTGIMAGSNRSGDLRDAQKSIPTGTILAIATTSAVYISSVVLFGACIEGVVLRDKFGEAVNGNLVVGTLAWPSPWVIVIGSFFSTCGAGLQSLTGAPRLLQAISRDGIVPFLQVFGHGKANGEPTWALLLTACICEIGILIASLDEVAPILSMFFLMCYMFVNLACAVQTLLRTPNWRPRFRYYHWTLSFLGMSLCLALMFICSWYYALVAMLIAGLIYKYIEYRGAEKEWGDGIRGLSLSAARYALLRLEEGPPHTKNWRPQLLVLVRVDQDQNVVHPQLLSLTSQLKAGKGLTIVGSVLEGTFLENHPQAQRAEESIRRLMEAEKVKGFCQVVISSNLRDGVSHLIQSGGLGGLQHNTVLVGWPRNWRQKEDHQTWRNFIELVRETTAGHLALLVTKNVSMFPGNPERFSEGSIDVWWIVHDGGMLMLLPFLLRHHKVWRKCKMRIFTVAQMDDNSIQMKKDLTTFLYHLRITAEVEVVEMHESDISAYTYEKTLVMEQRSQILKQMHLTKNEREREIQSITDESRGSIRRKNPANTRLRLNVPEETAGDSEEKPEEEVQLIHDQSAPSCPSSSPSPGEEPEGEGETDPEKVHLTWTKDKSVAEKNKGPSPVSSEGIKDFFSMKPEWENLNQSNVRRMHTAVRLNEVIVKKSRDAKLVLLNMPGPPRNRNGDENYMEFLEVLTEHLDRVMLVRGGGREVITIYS

[5] = tested on: superficial dorsal horn (SDH) neurons; assay: Whole-cell recording of EGABA under Cl− load in superficial dorsal horn neurons; type: cell-based, rat; conditions: 25 μM, BDNF-treated and PNI slices
GABAA receptor = assay: Evoked GABAA currents in SDH neurons with VU0240551; type: cell-based, rat; conditions: acute application, 25 and 100 μM, in the presence of VU0240551
[6] = tested on: 55 radioligand-receptor interactions; assay: Radioligand competition binding screen, whole panel; conditions: 10 μM CLP257, 55 interactions
rat hepatoma H4IIE cells = assay: Caspase-3 activation in H4IIE cells; type: cell-based; conditions: 24-h exposure, up to 300 μM
Metabolite analyses = type: in vivo; conditions: not shown
KCC2 [7] = target: T2, KCC2 (Rattus norvegicus, UniProt Q63633); assay: Imaging of K+-driven Cl− transport; type: cell-based; conditions: for increase of the rate of Cl− accumulation: 25 μM, 15 mM KCl
T2 sequence (Q63633 1-1116 isoform Q63633-2): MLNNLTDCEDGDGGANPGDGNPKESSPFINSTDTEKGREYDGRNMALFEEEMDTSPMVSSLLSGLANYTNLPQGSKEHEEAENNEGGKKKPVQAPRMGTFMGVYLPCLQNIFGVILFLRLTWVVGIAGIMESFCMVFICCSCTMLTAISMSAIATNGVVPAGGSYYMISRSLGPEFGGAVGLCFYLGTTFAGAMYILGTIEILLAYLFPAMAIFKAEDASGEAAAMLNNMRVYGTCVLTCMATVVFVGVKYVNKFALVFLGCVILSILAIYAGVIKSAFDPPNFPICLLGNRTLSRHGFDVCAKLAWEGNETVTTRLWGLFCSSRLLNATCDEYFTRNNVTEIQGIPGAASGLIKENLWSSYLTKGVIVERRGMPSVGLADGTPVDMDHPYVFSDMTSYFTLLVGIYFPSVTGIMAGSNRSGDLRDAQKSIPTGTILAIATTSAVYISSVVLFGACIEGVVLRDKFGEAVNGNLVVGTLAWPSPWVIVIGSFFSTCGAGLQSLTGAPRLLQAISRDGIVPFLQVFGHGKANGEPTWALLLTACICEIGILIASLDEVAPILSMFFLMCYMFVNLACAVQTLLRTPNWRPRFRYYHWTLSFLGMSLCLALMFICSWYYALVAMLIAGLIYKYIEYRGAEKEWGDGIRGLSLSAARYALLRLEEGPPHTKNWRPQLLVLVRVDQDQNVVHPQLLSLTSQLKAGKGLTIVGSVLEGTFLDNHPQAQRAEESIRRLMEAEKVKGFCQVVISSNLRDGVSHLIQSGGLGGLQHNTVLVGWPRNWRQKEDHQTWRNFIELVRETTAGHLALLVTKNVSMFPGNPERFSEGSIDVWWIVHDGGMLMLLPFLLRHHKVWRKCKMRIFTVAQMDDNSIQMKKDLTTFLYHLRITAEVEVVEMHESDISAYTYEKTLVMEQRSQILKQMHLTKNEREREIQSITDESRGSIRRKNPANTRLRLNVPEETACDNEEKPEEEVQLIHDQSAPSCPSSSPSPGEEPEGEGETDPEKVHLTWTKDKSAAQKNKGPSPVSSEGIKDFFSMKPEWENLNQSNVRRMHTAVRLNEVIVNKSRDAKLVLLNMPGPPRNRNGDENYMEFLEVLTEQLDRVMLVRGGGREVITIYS

KCC2 [8] = target: T2, KCC2; assay: Cell surface biotinylation and immunoblot of KCC2 in BDNF-treated spinal slices; type: cell-based; conditions: 100 μM, BDNF-pretreated slices
other CCCs = assay: Rb+ flux assay in X. laevis oocytes expressing other CCCs; type: cell-based; conditions: 200 nM pre-incubation
HEK293-cl cells = assay: Clomeleon assay of [Cl−]i in HEK293-cl cells; type: cell-based, Human; conditions: HEK293-cl cells (no KCC2; express NKCC1, KCC1, KCC3, KCC4)
[9] = 5 h, [Cl−]i reduction, clomeleon assay, 5 h exposure
[10] = [Cl−]i reduction, clomeleon assay, 5 h exposure

hERG channel, sequence (Q12809 whole entry): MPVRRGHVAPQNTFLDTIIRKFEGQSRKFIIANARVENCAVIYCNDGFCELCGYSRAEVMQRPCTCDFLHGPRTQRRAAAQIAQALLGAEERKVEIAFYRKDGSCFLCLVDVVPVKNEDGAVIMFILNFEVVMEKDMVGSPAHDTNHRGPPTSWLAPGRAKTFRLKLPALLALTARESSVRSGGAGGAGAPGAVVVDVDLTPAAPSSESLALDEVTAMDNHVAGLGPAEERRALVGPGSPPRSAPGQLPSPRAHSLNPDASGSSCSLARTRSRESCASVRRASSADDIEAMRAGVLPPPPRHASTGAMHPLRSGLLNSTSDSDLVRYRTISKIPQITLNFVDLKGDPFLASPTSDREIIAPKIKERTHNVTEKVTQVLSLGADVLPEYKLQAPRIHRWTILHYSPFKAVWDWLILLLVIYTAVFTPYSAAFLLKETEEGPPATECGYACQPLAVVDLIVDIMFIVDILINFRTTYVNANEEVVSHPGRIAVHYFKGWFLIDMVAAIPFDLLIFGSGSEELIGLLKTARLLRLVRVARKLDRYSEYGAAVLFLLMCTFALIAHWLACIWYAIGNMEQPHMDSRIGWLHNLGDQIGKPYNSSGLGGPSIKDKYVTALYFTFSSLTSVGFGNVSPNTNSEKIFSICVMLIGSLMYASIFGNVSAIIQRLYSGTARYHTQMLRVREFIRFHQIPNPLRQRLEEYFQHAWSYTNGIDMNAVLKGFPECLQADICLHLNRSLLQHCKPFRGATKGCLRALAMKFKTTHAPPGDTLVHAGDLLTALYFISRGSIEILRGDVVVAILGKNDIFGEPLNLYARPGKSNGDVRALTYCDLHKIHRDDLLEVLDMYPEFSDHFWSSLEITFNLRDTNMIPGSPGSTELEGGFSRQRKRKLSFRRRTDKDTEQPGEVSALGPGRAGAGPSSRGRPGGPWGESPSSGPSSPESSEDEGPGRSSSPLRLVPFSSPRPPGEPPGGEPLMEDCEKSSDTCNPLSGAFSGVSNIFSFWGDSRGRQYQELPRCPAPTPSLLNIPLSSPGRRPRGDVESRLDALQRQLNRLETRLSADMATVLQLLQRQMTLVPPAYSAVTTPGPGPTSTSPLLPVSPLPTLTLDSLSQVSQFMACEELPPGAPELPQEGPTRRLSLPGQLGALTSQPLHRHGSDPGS

## O=C1N=C(N2CCCCN2)S/C1=C\c1ccc(F)cc1OC(=O)N1CCCC1 [CLP290, 2-{[(5Z)-2-(1,2-diazinan-1-yl)-4-oxo-4,5-dihydro-1,3-thiazol-5-ylidene]methyl}-5-fluorophenyl pyrrolidine-1-carboxylate]
PNI rats; PO, 100 mg kg^−1 vs Pregabalin 30 mg kg^−1
  maximal oral analgesic efficacy: equivalent to that of Pregabalin
[1]; analyte CLP257 after CLP290
  maximal plasma concentration and exposure of CLP257 vs native CLP257: improved maximal plasma concentration and exposure
hERG channel
  pIC50: 3.65
rats
  motor function on accelerating rotorod: no effect

## O=C1N=C(N2CCCCN2)S/C1=C\c1ccc(F)cc1O [CLP257, (5Z)-2-(1,2-diazinan-1-yl)-5-[(4-fluoro-2-hydroxyphenyl)methylidene]-4,5-dihydro-1,3-thiazol-4-one]
[2]; animals with nerve injury (PNI)
  evoked field responses: renormalized
[2]; naïve animals, 2.5 to 135 g (mm^2)^−1
  effect on the stimulus-response relationship of evoked field responses: no effect
[3]
  agonist effect relative to the effect of 5 μM muscimol: < 0.2%
NG108-cl cells; [9]
  pEC50: 6.21
NG108-cl cells; NG108-cl cells
  Maximal [Cl−]i reduction: ~ 40%
NG108-cl cells; at maximal effect
  drop from resting [Cl−]i of 57 mM: 23 mM
KCC2 [4]
  increase of KCC2 transport activity (Rb+ influx): 61%
[5]
  EGABA (reversal potential for GABAA currents): hyperpolarized
PNI rats; IP
  maximal analgesic effect compared with Gabapentin: much weaker than that of Gabapentin
PNI rats; IP, peaking at 100 mg kg^−1, 2 h post-injection
  mechanical withdrawal thresholds: increased withdrawal thresholds
[1]; male, Sprague-Dawley, plasma
  half-life: < 15 min
hERG channel
  pIC50: 3.35
GABAA receptor
  effect on evoked GABAA currents: no effect
[6]
  inhibition of radioligand-receptor interactions, maximum over the panel: ≤ 30%
Rat hepatoma H4IIE cells
  Caspase-3 activation: not detected
Metabolite analyses
  metabolism of the hydroxyl moiety: rapidly undergoes glucuronidation
KCC2 [7]; BDNF-treated spinal slices
  increase of the rate of Cl− accumulation: 26%
KCC2 [7]; PNI spinal slices
  increase of the rate of Cl− accumulation: 45%
KCC2 [7]; 100 μM, BDNF-treated slices
  Cl− transport: completely restored Cl^− transport to control levels
KCC2 [8]
  cell surface expression of KCC2 monomers and dimers: increased
  total KCC2 expression: not significantly affected
Other CCCs
  change of transport activity (Rb+ influx) in other CCCs: no change
HEK293-cl cells
  change in [Cl−]i: no change

## O=C1N=C(N2CCCCC2)S/C1=C\c1ccccc1O [CL-058, (5Z)-5-[(2-hydroxyphenyl)methylidene]-2-(piperidin-1-yl)-4,5-dihydro-1,3-thiazol-4-one]
NG108-cl cells; [10]
  pEC50: 4.50

## Cc1csc(NC(=O)CSc2ccc(-c3ccccc3)nn2)n1 [VU0240551, reference compound]
NG108-cl cells; CLP257 500 nM, 5 h exposure
  antagonism of the [Cl−]i response to CLP257: dose-dependent antagonism

## O=C1N=C(N2CCCCN2)S/C1=C\c1ccc(F)cc1OC1OC(C(=O)O)C(O)C(O)C1O (centres unmarked) [CLP386, 6-(2-{[(5Z)-2-(1,2-diazinan-1-yl)-4-oxo-4,5-dihydro-1,3-thiazol-5-ylidene]methyl}-5-fluorophenoxy)-3,4,5-trihydroxyoxane-2-carboxylic acid]
NG108-cl cells; [10]
  EC50 (μM): inactive

## Oc1cc(F)ccc1/C=C1\SC(N2CCCCN2)=NC1=S [CLP355, (5Z)-2-(1,2-diazinan-1-yl)-5-[(4-fluoro-2-hydroxyphenyl)methylidene]-4,5-dihydro-1,3-thiazole-4-thione]
NG108-cl cells; [9]
  pEC50: 7.30

## CC(C)C[C@H](CN)CC(=O)O [Pregabalin, reference compound]
rats
  motor function on accelerating rotorod: depressed motor function

— paper PMC4005788 (Nature medicine, 2013)
